Data on 2 compounds can be found in EP3057949B1, “SECONDARY ALCOHOL QUINOLINYL MODULATORS OF ROR GAMMA T” (Janssen Pharmaceutica NV, priority 2013, dated 2015).

This test concerns the target T1, full-length human RORγt (Homo sapiens, UniProt P51449).
T1 construct: expressed in transfected cells; host or cells: HEK293T
T1 sequence (P51449 1-497 isoform P51449-2): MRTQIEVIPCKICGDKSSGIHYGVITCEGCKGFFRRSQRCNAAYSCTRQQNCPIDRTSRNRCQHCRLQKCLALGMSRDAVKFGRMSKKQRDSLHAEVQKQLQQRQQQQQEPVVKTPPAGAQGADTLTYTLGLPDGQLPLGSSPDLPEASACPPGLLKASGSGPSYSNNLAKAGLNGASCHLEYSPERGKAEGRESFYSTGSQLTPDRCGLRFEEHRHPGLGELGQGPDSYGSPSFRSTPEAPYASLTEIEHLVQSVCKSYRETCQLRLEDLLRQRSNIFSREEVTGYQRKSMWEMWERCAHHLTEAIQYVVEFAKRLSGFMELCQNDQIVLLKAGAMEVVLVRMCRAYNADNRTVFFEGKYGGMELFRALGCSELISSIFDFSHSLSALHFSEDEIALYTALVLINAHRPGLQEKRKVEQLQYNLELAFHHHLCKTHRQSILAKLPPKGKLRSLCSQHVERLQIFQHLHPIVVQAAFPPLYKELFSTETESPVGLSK
As to the kind of experiment: RORγt (full-length human) Reporter Assay (GAL4 luciferase, HEK293T cells). It counts as cell-based. The conditions noted are these: for IC50: overnight (16 to 20 hours) incubation, read-out: RORγt (FL) Reporter Assay, IC50. The procedure:
Compounds were assessed for RORgt functional modulation using either the RORgt ligand binding domain (LBD) reporter assay, or the RORgt full-length (FL) reporter assay.
A reporter assay was used to test functional activity of RORγt modulatory compounds on transcriptional activation driven by full-length human RORγt. Cells used in this assay were transiently co-transfected with three different plasmids, one expressing the GAL4-DNA binding domain (DBD)-RORγt fusion protein under control of a CMV promoter (NH2-Gal4-DBD:RORC-COOH in pCMV-BD, Stratagene #211342), and two reporter plasmids - the firefly luciferase reporter under control of a GAL4 promoter (pFR-Luc 2x GAL4) and Renilla luciferase reporter under control of CMV promoter (pRL-CMV, Promega #E2261). The full-length coding sequence was used for human RORγt, i.e., nucleotides 142-1635 of human RORγt, transcript variant 2, NCBI Accession: NM_001001523.1 (SEQ ID NO:1). HEK293T cells were plated at 35000 per well in 96-well plate in medium of MEM with 8.6% FBS. After 18-22 hours incubation, the transfection was carried out by using a PEI solution with 170.5 ng total DNA/well (50 ng pCMV-BD-ROR plus 20 ng of pFR-Luc reporter and 0.5 ng of pRL-CMV reporter plus 100 ng Carrier DNA (Clontech # 630440) for each well). 4-6 hours after transfection, cells were treated with compounds for overnight in the medium with final concentration of FBS 1.1% and DMSO 0.1%. After overnight (16 to 20 hours) incubation, media were removed and cells were lysed with 20 µL 1x Passive Lysis Buffer (Promega) for 10-15 minutes. Luminescence was measured using a BMG LUMIstar OPTIMA plate reader, after addition of 75 µL/well firefly luciferase buffer, followed by 75 µL/well Renilla luciferase buffer. To calculate the effect of compounds on RORγt activity, firefly values were normalized against values of DMSO only and values of reference compound at saturating concentration, then further normalized against Renilla signals. IC50s were generated by plotting final Renilla normalized data against compound concentration and percent inhibition was calculated against DMSO control.
(In general: Reporter assays use an easily measured gene product as a stand-in for the process of interest.)

In general, inhibition refers to the percentage by which the read-out fell short of the control. As a reminder, the IC50 is the concentration needed to halve the response being measured. With `COc1nc2ccc(C(O)c3cnc(C)n3C)cc2c(Cl)c1Cc1ccc(C(F)(F)F)cc1` (single isomer, unassigned) [Example 15b, (4-Chloro-2-methoxy-3-(4-(trifluoromethyl)benzyl)quinolin-6-yl)(1,2-dimethyl-1H-imidazol-5-yl)methanol], the IC50 worked out at 0.091 µM. The inhibition at 0.67 µM (HEK-293T, 0.67 µM compound concentration (footnote *), read-out: RORγt (FL) Reporter Assay, % inhibition (values marked *)) worked out at 85%.
For the compound `COc1nc2ccc(C(O)c3cnc(C)n3C)cc2c(Cl)c1Cc1ccc(C(F)(F)F)cc1` (single isomer, unassigned) [Example 15c, (4-Chloro-2-methoxy-3-(4-(trifluoromethyl)benzyl)quinolin-6-yl)(1,2-dimethyl-1H-imidazol-5-yl)methanol], the IC50 stood at 0.058 µM. For the same compound, where the note is “HEK-293T, 2 µM compound, read-out: RORγt (FL) Reporter Assay, % inhibition @ 2 µM”, the inhibition at 2 µM worked out at 96%.
